Patent publication US6809107B1, “Neurotrophic pyrrolidines and piperidines, and related compositions and methods” (Ortho-McNeil Pharmaceutical, Inc., priority 1999, dated 2004)

Experiments:
[1] = target: T1, α-4,β-2 nicotinic acetycholine receptor (α4β2nAChR) (Rattus norvegicus, UniProt P09483+P12390); assay: Nicotinic acetylcholine receptor binding assay (3H-cytisine)
T1 construct: crude synaptic membrane preparations from rat cerebral cortex, striatum and hippocampus; from tissue; host or cells: rat cerebral cortex, striatum and hippocampus (crude synaptic membranes, P2 fraction)
T1 sequence (P09483 31-630): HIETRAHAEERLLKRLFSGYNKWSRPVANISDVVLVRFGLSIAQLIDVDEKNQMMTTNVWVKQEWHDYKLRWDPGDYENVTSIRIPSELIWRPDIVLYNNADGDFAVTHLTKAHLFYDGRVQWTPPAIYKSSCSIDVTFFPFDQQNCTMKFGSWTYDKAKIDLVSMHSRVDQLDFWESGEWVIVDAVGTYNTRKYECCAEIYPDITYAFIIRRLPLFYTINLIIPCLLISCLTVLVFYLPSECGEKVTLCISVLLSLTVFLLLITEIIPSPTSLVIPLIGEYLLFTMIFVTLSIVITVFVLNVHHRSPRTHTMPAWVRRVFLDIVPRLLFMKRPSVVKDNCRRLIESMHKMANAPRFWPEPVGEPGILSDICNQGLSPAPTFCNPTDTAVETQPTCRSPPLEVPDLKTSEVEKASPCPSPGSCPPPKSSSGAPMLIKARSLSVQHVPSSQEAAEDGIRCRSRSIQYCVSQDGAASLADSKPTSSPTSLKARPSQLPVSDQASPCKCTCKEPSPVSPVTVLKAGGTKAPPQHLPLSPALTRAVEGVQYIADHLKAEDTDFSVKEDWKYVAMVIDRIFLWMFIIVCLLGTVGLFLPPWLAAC
T1 sequence (P12390 25-500): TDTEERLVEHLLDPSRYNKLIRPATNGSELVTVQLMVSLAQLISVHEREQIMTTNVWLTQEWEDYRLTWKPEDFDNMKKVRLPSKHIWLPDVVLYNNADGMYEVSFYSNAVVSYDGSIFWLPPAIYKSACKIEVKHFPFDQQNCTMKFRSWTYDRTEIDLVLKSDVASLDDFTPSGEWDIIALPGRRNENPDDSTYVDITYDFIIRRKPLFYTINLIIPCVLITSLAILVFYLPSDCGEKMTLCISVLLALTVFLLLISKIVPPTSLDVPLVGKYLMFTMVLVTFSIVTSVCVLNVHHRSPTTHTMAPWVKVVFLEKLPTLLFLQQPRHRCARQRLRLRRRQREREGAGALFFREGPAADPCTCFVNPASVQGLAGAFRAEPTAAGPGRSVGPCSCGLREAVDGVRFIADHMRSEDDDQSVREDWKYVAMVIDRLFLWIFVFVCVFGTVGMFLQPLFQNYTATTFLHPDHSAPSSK
Procedure: Binding of ^3H-cytisine to neuronal nicotinic acetylcholine receptors is accomplished using crude synaptic membrane preparations from rat cerebral cortex, striatum and hippocampus. Either fresh or frozen membranes are homogenized in 50 volumes of 10 mM HEPES (N-2-hydroxyethylpiperazine-N′-2-ethanesulfonic acid, pH 7.4) and centrifuged at 42,000 g. The P2 fraction is resuspended in 40 volumes of 10 mM HEPES and centrifuged at 42,000 g. This step is repeated and the P2fraction was resuspended in 25 volumes (e.g., 1 g of tissue into 25 mL) of a medium comprised of Na^+-HEPES buffer (10 mM, pH 7.4), 5 mM MgCl2, 0.01% powdered bovine serum albumin (BSA) and 100 mM NaCl. […] The binding reaction is terminated by filtration using a Brandel Cell Harvester; the amount of bound ^3H-cytisine for each sample is quantitated using a Wallac LKB 1205 Betaplate liquid scintillation counter. […] Nonspecific binding is determined using 10 μM (+)-epibatidine to block all binding of ^3H-cytisine to the α-4,β-2 nicotinic acetycholine receptor (α4β2nAChR). The activity of each test compound is calculated as follows: after correcting for nonspecific binding, the percent inhibition of specific binding (total binding minus nonspecific) is calculated. […] The IC50 values are calculated by performing a nonlinear regression analysis of the data using a standard regression program.

[2] = tested on: Human M17 Neuroblastoma Cells; assay: Neurite outgrowth assay in human M17 neuroblastoma cells; type: cell-based; conditions: MAP-2 immunofluorescence, active if greater than mean DMSO-treated control
Procedure: M17 human neuroblastoma cells are cultured in 1:1 ratio of EMEM and Ham's F12 with 1×NEM and 10% FBS. The culture media contains 1×PSN antibiotic and is exchanged every other day, and the cells are passed in log phase near confluence.
(§1) Cultures are incubated with normal horse serum (1:50; Vector Labs) for about 20 min, rinsed and then incubated with primary antibody, microtubule associated-protein 2 (anti-mouse MAP-2; 1:1000; Chemicon) for about 2 h at about RT. Following primary antibody, cultures are rinsed and incubated with fluorescein anti-mouse IgG (rat absorbed; 1:50; Vector Labs) for about 1 h. After fluorescein incubation, the cultures are rinsed and read in PBS on a fluorescent plate reader (excitation: 485 nm; emission: 530 nm). […] The response to test compound is reported as percent of DMSO-treated control.

[3] = tested on: Dorsal Root Ganglion (DRG); assay: Dorsal Root Ganglion (DRG) culture, neurite outgrowth; type: cell-based, rat; design: key: + = Positive results for each experiment; − = Negative results for each experiment; conditions: neurite outgrowth from DRG, test compound 50-250 nM, days 1-5; positive if neurites of ≧1 diameter of the DRG; one symbol per experiment
Procedure: Dorsal Root Ganglion (DRG) Culture
DRG are dissected from newborn or 1-day-old CD rats and placed into PBS on ice. After rinsing twice with sterile plating medium, DRG are transferred to empty wells of a 6-well plate coated with polyomithine/laminin (Becton Dickinson Labware) using #7 curved forceps. Three ml/well of plating medium are then added very gently, so as not to disturb the DRG. Plating medium is Leibovitz's L-15 medium (Gibco), plus 0.6% glucose, 33 mM KCl, 10% FCS, 10 mM Hepes and penicillin/streptomycin/glutamine. After overnight incubation at about 37° C. in 5% CO2, this medium is replaced with 3 mL/well of assay medium [Leibovitz's L-15 medium plus 0.6% glucose, 1% FCS, 1% N-2 supplement (Gibco), 10 μM ara-C, 10 mM Hepes, and penicillin/streptomycin/glutamine] containing either vehicle (DMSO, 1/200,000), positive control (2-4 ng/mL NGF) or test compound (50-250 nM). All media are prepared fresh daily. DRG are microscopically examined for neurite outgrowth on days 1-5.

[4] = tested on: Long-Evans rats, compressed facial nerve; assay: Rat facial nerve compression model; type: in vivo; conditions: p.o. about 20 mg/kg twice a day for 15 days after surgery; compared to vehicle and internal control; FIG. 1
Procedure: In this model, compressing the facial nerve causes paralysis of the whisker muscle on that side of the face. The untreated facial nerve on the other side functions as an internal control. […] The whisker movement recovery rate on the paralyzed side compared to the vehicle and internal control is shown in this FIGURE.
Long-Evans rats are anesthetized under ketamine (60 mg/kg)/xylazine (6mg/kg). The facial nerve is exposed and mechanically compressed with forceps near the stylomastoid foramen unilaterally with the opposite, non-lesioned side serving as an internal control. […] Rats received test compound p.o. at about 20 mg/kg twice a day for 15 days after the surgery. Control rats received vehicle only. Three to eight rats are tested in each group. Restoration of whisker movement after the treatment with compounds of the present invention is recorded at different post-operative time points daily, up to two weeks, and is shown in FIG. 1.

[5] = tested on: Primary Rat Hippocampal Cells; assay: Neurite outgrowth assay in primary rat hippocampal cells; type: cell-based; conditions: MAP-2 immunofluorescence, active if greater than mean DMSO-treated control
Procedure: Hippocampal cells are dissected from the brains of embryonic day 18 rat pups and dissociated with trypsin (1 mg/mL) and trituration. Cells are seeded at 30,000 cells/well in 96-well plates filled with 100 μL MEM and 10% FBS. At 7 days in culture, cells are fixed with 4% paraformaldehyde and immuno-fluorescence is performed.
as §1

Molecule `c1cncc(OCc2ncoc2[C@@H]2CCCN2)c1` [Compound 6] has an IC50 [1] of 801 nM.
In the case of `c1cncc(OCc2csc([C@@H]3CCCN3)n2)c1` [Compound 17], the IC50 [1] is reported as 63.8 nM.
With `CCC(C)(C)C(=O)C(=O)N1CCC[C@H]1c1nc(COc2cccnc2)cs1` [Compound 19] the “M17 Cell Response” value [2] was 110% of DMSO-treated control.
In the case of `CCC(C)(C)C(=O)C(=O)N1CCC[C@H]1C(=O)NNC(=O)[C@@H]1CCCN1C(=O)C(=O)C(C)(C)CC` [Compound 24], the DRG [3] is reported as “+ and −”.
For `CCC(C)(C)C(=O)C(=O)N1CCCC1c1nnc([C@@H]2CCCN2C(=O)C(=O)C(C)(C)CC)o1` (some centres unmarked) [Compound 30], the melting point was 123 to 124 °C and the “Restoration of whisker movement on the paralyzed side” value [4] was “restored more rapidly”.
Molecule `O=C(C(=O)N1CCCC1c1nnc([C@@H]2CCCN2C(=O)C(=O)C2CCCCC2)o1)C1CCCCC1` (some centres unmarked) [Compound 49] has a melting point of 132 to 133 °C.
With `CCC(C)(C)C(=O)C(=O)N1CCC[C@@H]1C(=O)NNC(=O)[C@H]1CCCN1C(=O)C(=O)C(C)(C)CC` [Compound 63] the “Rat Hippocampal Cell Response” value [5] was 110% of DMSO-treated control.
